Measurements as given in patent publication US20140271822A1, “MODIFIED DOCETAXEL LIPOSOME FORMULATIONS” (Mallinckrodt LLC, priority 2013, published 2014).
“Also recorded” adds a separate entry of the source.

Key:
[1] = Plasma pharmacokinetics in nude mice bearing PC3 xenografts; conditions: single iv; for plasma docetaxel concentrations falling below the levels of detection after: free drugs
Protocol: (§1) The plasma pharmacokinetics and distribution were studied in male athymic nude mice each implanted subcutaneously with PC3 cells (human prostate cancer). Once tumors reached a volume of 100-300 mm^3, animals were randomized into 5 groups.
(§2) Three animals were sacrificed at 5 minutes and 1, 4, 24, 48, 72, 120 and 168 hours post injection. Blood samples were taken for pharmacokinetic analysis at each time. Pharmacokinetic parameters of TD-1 and docetaxel were calculated using the Phoenix WinNonLin software by non-compartment analysis modeling.

[2] = Tissue distribution in mice with A549 xenografts; conditions: for Kidney AUC / Liver AUC / Spleen AUC / Tumor AUC: docetaxel in tissue
Protocol: (§3) The plasma pharmacokinetics and distribution were studied in female athymic nude mice each implanted subcutaneously with A549 cells (human non-small cell lung cancer). Once tumors reached a volume of 100-300 mm^3, animals were randomized into 4 groups.
Three animals were sacrificed at 1, 4, 24, 72 (3 days), 168 (7 days), 216 (9 days), 336 (14 days), 432 (18 days) and 504 hours (21 days) post injection. Blood samples were taken for pharmacokinetic analysis at each time point.

[3] = test system: MDA-MB-435/PTK7 (human breast) tumor xenografts; assay: Antitumor activity, MDA-MB-435/PTK7 breast xenograft; type: in vivo, athymic nude mice
Protocol: (§4) The studies were of broadly similar design. Tumor cell lines were implanted subcutaneously into the flank of nude (immunodeficient) mice and allowed to grow to a fixed size. […] In each case, where possible, doses were selected as providing equivalent levels of toxicity/tolerance. […] Tumor volume was analyzed to determine tumor growth delay (TGD) and partial regression. Mice were removed from the study if they lost 20% of their initial bodyweight or became moribund or if their tumor volume exceeded 2500 mm^3 or the tumor ulcerated. If less than half of the initial cohort of mice remained, that group was no longer graphed or included in further tumor analysis. However, any remaining animals were followed until completion of the in-life observation period and included in a survival analysis.

[4] = Tissue distribution in mice with PC3 xenografts; conditions: docetaxel in tissue
Protocol: as §1, §2
In addition to the plasma levels and pharmacokinetic calculations described above, tissue distribution was also evaluated. Tissues harvested from each animal described in Table 5 and frozen before analysis included: tumor, liver, spleen, and kidney.

[5] = test system: A431 human epidermoid tumor xenografts; assay: Antitumor activity, A431 epidermoid xenograft; type: in vivo, athymic nude mice
Protocol: as §4

[6] = test system: HT1080/PTK7 human fibrosarcoma tumor xenografts; assay: Antitumor activity, HT1080/PTK7 fibrosarcoma xenograft; type: in vivo, athymic nude mice
Protocol: as §4

[7] = test system: human A549 NSCLC tumor xenografts; assay: Antitumor activity, A549 NSCLC xenograft, single dose; type: in vivo, athymic nude mice
Protocol: as §4

[8] = test system: human A253 (Head & Neck) tumor xenografts; assay: Antitumor activity, A253 head & neck xenograft; type: in vivo, athymic nude mice; conditions: for TGI (%): day 31 post treatment
Excerpt: The studies were of broadly similar design.

[9] = in vivo; conditions: male, athymic nude, mouse, plasma, iv, 19 mg/kg
Protocol: as §1, §2

[10] = mouse, in vivo
Protocol: as §3
(§5) Three animals were sacrificed at 1, 4, 24, 72 (3 days), 168 (7 days), 216 (9 days), 336 (14 days), 432 (18 days) and 504 hours (21 days) post injection. Blood samples were taken for pharmacokinetic analysis at each time point. Pharmacokinetic parameters of TD-1 and docetaxel were calculated using the Phoenix WinNonLin software by non-compartment analysis modeling.

[11] = test system: A549 human NSCLC tumor xenografts; assay: Antitumor activity, A549 NSCLC xenograft, two doses 21 days apart; conditions: for Median Survival / Partial Tumor Regression (%) / TGD / TGD (%): two doses 21 days apart
Protocol: The studies were of broadly similar design. Tumor cell lines were implanted subcutaneously into the flank of nude (immunodeficient) mice and allowed to grow to a fixed size. […] In each case, where possible, doses were selected as providing equivalent levels of toxicity/tolerance. The highest doses of TD-1 were usually limited by the volume that could be administered. Tumor volume was analyzed to determine tumor growth delay (TGD) and partial regression. Mice were removed from the study if they lost 20% of their initial bodyweight or became moribund or if their tumor volume exceeded 2500 mm^3 or the tumor ulcerated. If less than half of the initial cohort of mice remained, that group was no longer graphed or included in further tumor analysis. However, any remaining animals were followed until completion of the in-life observation period and included in a survival analysis.

[12] = test system: human PC3 (prostate) tumor xenografts; assay: Antitumor activity, PC3 prostate xenograft; type: in vivo, athymic nude mice; conditions: docetaxel 18 and 27 mg/kg
Protocol: as §4

[13] = in vivo; conditions: female, athymic nude, mouse, iv
Protocol: as §3, §5

[14] = docetaxel in plasma, dose 19 mg/kg (docetaxel equivalent)
[15] = dose 19 mg/kg (docetaxel equivalent)
[16] = 30 mg/kg (docetaxel equivalent) single iv
[17] = TD-1 in plasma, dose 11 mg/kg (docetaxel equivalent)
[18] = docetaxel in plasma, dose 11 mg/kg (docetaxel equivalent)

**Q.** What does the source list for CC(=O)O[C@@]12CO[C@@H]1C[C@H](O)[C@@]1(C)C(=O)[C@H](O)C3=C(C)[C@@H](OC(=O)[C@H](O)[C@@H](NC(=O)OC(C)(C)C)c4ccccc4)C[C@@](O)([C@@H](OC(=O)c4ccccc4)[C@H]21)C3(C)C [Docetaxel, docetaxel]?
**A.** AUC/Dose [1, 14]: 0.7; Cmax/Dose [1, 14]: 0.7; plasma docetaxel concentrations falling below the levels of detection after [1]: 48 h; tumor retained measurable levels of docetaxel through ([2]; docetaxel 50 mg/kg): 216 h; tissue concentrations of docetaxel fell below the limits of quantitation after ([2]; docetaxel 50 mg/kg, most of the tissues except tumor): 24 h; Kidney AUC ([2]; dose 30 mg/kg): 28 µg·h/g; Liver AUC ([2]; dose 30 mg/kg): 10 µg·h/g; Spleen AUC ([2]; dose 30 mg/kg): 77 µg·h/g; Tumor AUC ([2]; dose 30 mg/kg): 276 µg·h/g; Kidney AUC ([2]; dose 50 mg/kg): 179 µg·h/g; Liver AUC ([2]; dose 50 mg/kg): 37 µg·h/g; Spleen AUC ([2]; dose 50 mg/kg): 162 µg·h/g; Tumor AUC ([2]; dose 50 mg/kg): 442 µg·h/g; docetaxel in liver, spleen and kidney fell below the levels of detection within ([2]; free docetaxel, after injection): ≤ 24 h; tumor docetaxel falling below the levels of quantitation (1.0 μg/g) after ([2]; intravenous injection of docetaxel): nine days; Median Survival ([3]; 9 mg/kg single iv): 15 days; Partial Tumor Regression (%) ([3]; 9 mg/kg single iv): 0%; TGD ([3]; 9 mg/kg single iv): 1; TGD (%) ([3]; 9 mg/kg single iv): 9%; Median Survival ([3]; 18 mg/kg single iv): 28 days; Partial Tumor Regression (%) ([3]; 18 mg/kg single iv): 13%; TGD ([3]; 18 mg/kg single iv): 10; TGD (%) ([3]; 18 mg/kg single iv): 91%; TGI (%) ([3]; 18 mg/kg single iv): 26%; Median Survival ([3]; 27 mg/kg single iv): 35 days; Partial Tumor Regression (%) ([3]; 27 mg/kg single iv): 38%; TGD ([3]; 27 mg/kg single iv): 18; TGD (%) ([3]; 27 mg/kg single iv): 164%; TGI (%) ([3]; 27 mg/kg single iv): 42%; tumor growth ([3]; docetaxel 18 and 27 mg/kg): inhibited tumor growth; Kidney AUC [4, 15]: 73 µg·h/g; Liver AUC [4, 15]: 50 µg·h/g; Spleen AUC [4, 15]: 94 µg·h/g; Tumor AUC [4, 15]: 896 µg·h/g; Median Survival ([5]; 20 mg/kg single iv): 17 days; Partial Tumor Regression (%) ([5]; 20 mg/kg single iv): 63%; TGD ([5]; 20 mg/kg single iv): 13; TGD (%) ([5]; 20 mg/kg single iv): 1408%; TGI (%) ([5]; 20 mg/kg single iv): 123%; Median Survival ([5]; 30 mg/kg single iv): 9 days; Partial Tumor Regression (%) ([5]; 30 mg/kg single iv): 50%; TGI (%) ([5]; 30 mg/kg single iv): 120%; tumor growth compared to saline ([5]; docetaxel 20 and 30 mg/kg, day 7): inhibited tumor growth; also recorded: significantly smaller tumors than saline; Median Survival ([6]; 9 mg/kg single iv): 11.5 days; Partial Tumor Regression (%) ([6]; 9 mg/kg single iv): 0%; TGI (%) ([6]; 9 mg/kg single iv): 52%; Median Survival ([6]; 18 mg/kg single iv): 23 days; Partial Tumor Regression (%) ([6]; 18 mg/kg single iv): 10%; TGD ([6]; 18 mg/kg single iv): 7; TGD (%) ([6]; 18 mg/kg single iv): 70%; TGI (%) ([6]; 18 mg/kg single iv): 31%; Median Survival ([6]; 27 mg/kg single iv): 30 days; Partial Tumor Regression (%) ([6]; 27 mg/kg single iv): 70%; TGD ([6]; 27 mg/kg single iv): 16; TGD (%) ([6]; 27 mg/kg single iv): 160%; TGI (%) ([6]; 27 mg/kg single iv): 89%; survival ([6]; docetaxel): did not significantly increase survival; tumor growth compared to saline ([6]; docetaxel 27 mg/kg, day 14): inhibited tumor growth; also recorded: significantly smaller tumors than saline; Median Survival ([7]; 10 mg/kg single iv): 96 days; Partial Tumor Regression (%) ([7]; 10 mg/kg single iv): 0%; TGI (%) ([7]; 10 mg/kg single iv): 0%; Partial Tumor Regression (%) ([7]; 20 mg/kg single iv): 0%; TGI (%) ([7]; 20 mg/kg single iv): 4%; Partial Tumor Regression (%) [7, 16]: 10%; TGI (%) [7, 16]: 38%; effect on tumor volumes and survival ([7]; docetaxel 10, 20, 30 mg/kg): failed to reduce A549 tumor volumes significantly or extend survival; Median Survival ([8]; 10 mg/kg single iv): 64 days; TGD ([8]; 10 mg/kg single iv): 0 days; TGD (%) ([8]; 10 mg/kg single iv): 0%; TGI (%) ([8]; 10 mg/kg single iv): 0%; Median Survival ([8]; 20 mg/kg single iv): 62 days; TGD ([8]; 20 mg/kg single iv): 0 days; TGD (%) ([8]; 20 mg/kg single iv): 0%; TGI (%) ([8]; 20 mg/kg single iv): 0%; Median Survival [8, 16]: 73 days; TGD [8, 16]: 5 days; TGD (%) [8, 16]: 9%; TGI (%) [8, 16]: 12%; effect on tumor volumes and survival ([8]; docetaxel 10, 20, 30 mg/kg): failed to reduce A253 tumor volumes significantly or extend survival; AUC [9]: 13000 ng·h/mL; Cmax [9]: 13000 ng/mL; Vd [9]: 16.1 L/kg; clearance [9]: 25 mL/min/kg; half-life [9]: 7.4 h; plasma docetaxel detectable for [10]: only four hours; Median Survival ([11]; 18 mg/kg): 56 days; Partial Tumor Regression (%) ([11]; 18 mg/kg): 0%; TGD ([11]; 18 mg/kg): 19; TGD (%) ([11]; 18 mg/kg): 66%; Median Survival ([11]; 27 mg/kg): 100 days; Partial Tumor Regression (%) ([11]; 27 mg/kg): 10%; TGD ([11]; 27 mg/kg): 41; TGD (%) ([11]; 27 mg/kg): 141%; survival compared to saline ([11]; all dose levels, p<0.05): increased survival significantly compared to saline; tumor growth compared to saline ([11]; docetaxel 18 and 27 mg/kg, days 0 and 21, day 37): inhibited tumor growth; also recorded: significantly smaller tumors than saline; tumor growth [12]: inhibited tumor growth; survival compared to saline ([12]; p<0.05): increased survival significantly more than saline; AUC(0-inf) ([13]; 30 mg/kg): 8800 ng·h/mL; Cmax ([13]; 30 mg/kg): 2700 ng/mL; Vd ([13]; 30 mg/kg): 16.1 L/kg; AUC(0-inf) ([13]; 50 mg/kg): 27000 ng·h/mL; Cmax ([13]; 50 mg/kg): 8600 ng/mL; Vd ([13]; 50 mg/kg): 37.2 L/kg

**Q.** Which AUC [1, 17] does the source give for CC(=O)O[C@@]12CO[C@@H]1C[C@H](O)[C@@]1(C)C(=O)[C@H](O)C3=C(C)[C@@H](OC(=O)[C@H](OC(=O)CCCN4CCN(C)CC4)[C@@H](NC(=O)OC(C)(C)C)c4ccccc4)C[C@@](O)([C@@H](OC(=O)c4ccccc4)[C@H]21)C3(C)C [TD-1, 2′O-4-(4-methylpiperazin-1-yl)-butanoyl-docetaxel] here?
**A.** 5700 ng·h/mL

**Q.** And the AUC/Dose [1, 17]?
**A.** 0.4

**Q.** And the CL [1, 17]?
**A.** 39.77 mL/min/kg

**Q.** And the Cmax [1, 17]?
**A.** 5000 ng/mL

**Q.** And the Cmax/Dose [1, 17]?
**A.** 0.4

**Q.** What about the Vz [1, 17] of the same compound?
**A.** 26.01 L/kg

**Q.** What about the t1/2 [1, 17] of the same compound?
**A.** 7.6 h

**Q.** What about the AUC [1, 18] of the same compound?
**A.** 4100 ng·h/mL

**Q.** And the AUC/Dose [1, 18]?
**A.** 0.4

**Q.** What about the CL [1, 18] of the same compound?
**A.** 43.18 mL/min/kg

**Q.** And the Cmax [1, 18]?
**A.** 1400 ng/mL

**Q.** What about the Cmax/Dose [1, 18] of the same compound?
**A.** 0.1

**Q.** What about the Vz [1, 18] of the same compound?
**A.** 40.905 L/kg

**Q.** And the t1/2 [1, 18]?
**A.** 11 h

**Q.** And the “plasma docetaxel concentrations falling below the levels of detection after” value [1]?
**A.** 48 h

**Q.** What about the “Tumor AUC” value ([4]; dose 11 mg/kg (docetaxel equivalent)) of the same compound?
**A.** 314 µg·h/g
